According to patent US20240109930A1, “TRIAZOLYL-METHYL SUBSTITUTED ALPHA-D-GALACTOPYRANOSIDE DERIVATIVES” (Idorsia Pharmaceuticals Ltd, priority 2021, published 2024):

Legend:
human Gal-3 (hGal-3) = human Gal-3 (hGal-3) (Homo sapiens (Human), UniProt P17931); assay: Competitive binding assay: biotinylated hGal-3 binding to microplate-adsorbed asialofetuin (ASF); settings: IC50 values from several measurements given as geomean
Method in brief: (§1)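 Biotinylated hGal-3 or hGal-1 (preferably cysteine-free Cys→Ser mutant), 300–1000 ng/mL, competes with compound for ASF-coated wells for 3 h at 4 °C. Bound lectin detected with streptavidin-peroxidase (80 ng/mL, 1 h, 4 °C) and ABTS by absorbance; IC50 reported as geomean of several runs.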

human Gal-1 (hGal-1) = human Gal-1 (hGal-1) (Homo sapiens, UniProt P09382, C131S/C17S/C43S/C61S/C89S); assay: Competitive binding assay: biotinylated hGal-1 binding to microplate-adsorbed asialofetuin (ASF); settings: IC50 values from several measurements given as geomean
Method in brief: as §1

Chain of human Gal-3 (hGal-3) (P17931 whole entry): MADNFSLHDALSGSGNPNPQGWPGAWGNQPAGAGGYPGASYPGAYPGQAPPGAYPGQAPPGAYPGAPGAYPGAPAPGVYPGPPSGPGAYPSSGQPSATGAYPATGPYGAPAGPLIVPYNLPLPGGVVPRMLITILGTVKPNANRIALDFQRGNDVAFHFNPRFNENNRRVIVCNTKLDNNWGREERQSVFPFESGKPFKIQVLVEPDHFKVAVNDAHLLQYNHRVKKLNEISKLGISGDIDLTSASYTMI

IC50 (human Gal-3 (hGal-3)) [nM] | IC50 (human Gal-1 (hGal-1)) [nM] | SMILES
40 | 2810 | CO[C@@H]1[C@@H](n2cc(-c3ccc(Cl)c(F)c3F)nn2)[C@@H](O)[C@@H](CO)O[C@@H]1Cc1cn(C2(CO)CC(F)(F)C2)nn1 [Ex 2.1.18.]
30 | 1740 | CO[C@@H]1[C@@H](n2cc(-c3ccc(Br)c(F)c3F)nn2)[C@@H](O)[C@@H](CO)O[C@@H]1Cc1cn([C@@H]2CCCC2(F)F)nn1 [Example 4.1.64.A, (2R,3R,4S,5R,6R)-4-(4-(4-bromo-2,3-difluorophenyl)-1H-1,2,3-triazol-1-yl)-6-((1-((R)-2,2-difluorocyclopentyl)-1H-1,2,3-triazol-4-yl)methyl)-2-(hydroxymethyl)-5-methoxytetrahydro-2H-pyran-3-ol]
70 | 3990 | CO[C@@H]1[C@@H](n2cc(-c3ccc(C#N)c(F)c3F)nn2)[C@@H](O)[C@@H](CO)O[C@@H]1Cc1cn(C2(C)COC2)nn1 [Ex 5.1.6.]
90 | 5930 | CO[C@@H]1[C@@H](n2cc(-c3ccc(Cl)c(F)c3F)nn2)[C@@H](O)[C@@H](CO)O[C@@H]1Cc1cn(C2CC3(COC3)C2)nn1 [Ex 2.1.16.]
40 | 2000 | CO[C@@H]1[C@@H](n2cc(-c3ccc(Cl)c(F)c3F)nn2)[C@@H](O)[C@@H](CO)O[C@@H]1Cc1cn(C2CCC2(F)F)nn1 (single isomer, unassigned) [Example 2.1.63.B]
30 | 1330 | CCC(C)(C)n1cc(C[C@H]2O[C@H](CO)[C@H](O)[C@H](n3cc(-c4ccc(Cl)c(F)c4F)nn3)[C@H]2OC)nn1 [Ex 2.1.49., (2R,3R,4S,5R,6R)-4-(4-(4-Chloro-2,3-difluorophenyl)-1H-1,2,3-triazol-1-yl)-2-(hydroxymethyl)-5-methoxy-6-((1-(tert-pentyl)-1H-1,2,3-triazol-4-yl)methyl)tetrahydro-2H-pyran-3-ol]
90 | 1250 | CO[C@@H]1[C@@H](n2cc(-c3ccc(F)c(F)c3F)nn2)[C@@H](O)[C@@H](CO)O[C@@H]1Cn1cc(C2(O)CCCC2)nn1 [Ex 3.2.33.]
30 | 1100 | CO[C@@H]1[C@@H](n2cc(-c3ccc(Cl)c(F)c3F)nn2)[C@@H](O)[C@@H](CO)O[C@@H]1Cc1cn([C@]2(C)CCO[C@@H]2C)nn1 (single isomer, unassigned) [Example 2.1.68.A, (2R,3R,4S,5R,6R)-4-(4-(4-chloro-2,3-difluorophenyl)-1H-1,2,3-triazol-1-yl)-6-((1-((2R*,3R*)-2,3-dimethyltetrahydrofuran-3-yl)-1H-1,2,3-triazol-4-yl)methyl)-2-(hydroxymethyl)-5-methoxytetrahydro-2H-pyran-3-ol]
70 | 3190 | CO[C@@H]1[C@@H](n2cc(-c3ccc(Br)c(F)c3F)nn2)[C@@H](O)[C@@H](CO)O[C@@H]1Cc1cn(C2CCC2(F)F)nn1 (stereo partly drawn) [Example 4.1.63.AB, (2R,3R,4S,5R,6R)-4-(4-(4-bromo-2,3-difluorophenyl)-1H-1,2,3-triazol-1-yl)-6-((1-(2,2-difluorocyclobutyl)-1H-1,2,3-triazol-4-yl)methyl)-2-(hydroxymethyl)-5-methoxytetrahydro-2H-pyran-3-ol]
70 | 44000 | CO[C@@H]1[C@@H](n2cc(-c3ccc(C)c(F)c3F)nn2)[C@@H](O)[C@@H](CO)O[C@@H]1Cc1cn(C(C)(C)CO)nn1 [Ex 1.1.9.]
40 | 2210 | CO[C@@H]1[C@@H](n2cc(-c3ccc(C)c(F)c3F)nn2)[C@@H](O)[C@@H](CO)O[C@@H]1Cc1cn(C2(C)COC2)nn1 [Ex 1.1.6.]
130 | 28400 | CO[C@@H]1[C@@H](n2cc(-c3ccc(Br)c(F)c3F)nn2)[C@@H](O)[C@@H](CO)O[C@@H]1Cc1cn(C23CC(C(F)(F)F)(C2)C3)nn1 [Ex 4.1.24.]
40 | 1830 | CO[C@@H]1[C@@H](n2cc(-c3ccc(Cl)c(F)c3F)nn2)[C@@H](O)[C@@H](CO)O[C@@H]1Cc1cn(C2(C)CCOC2)nn1 (stereo partly shown) [Ex 2.1.42.]
40 | 3150 | CO[C@@H]1[C@@H](n2cc(-c3ccc(C)c(F)c3F)nn2)[C@@H](O)[C@@H](CO)O[C@@H]1Cc1cn([C@H]2CCC[C@@H]2O)nn1 [Ex 1.1.3.]
170 | 5400 | CO[C@@H]1[C@@H](n2cc(-c3ccc(Cl)c(F)c3F)nn2)[C@@H](O)[C@@H](CO)O[C@@H]1Cn1cc(C2(O)CC(F)(F)C2)nn1 [Ex 2.2.85.]
30 | 1170 | CO[C@@H]1[C@@H](n2cc(-c3ccc(Cl)c(F)c3F)nn2)[C@@H](O)[C@@H](CO)O[C@@H]1Cn1cc(C2(C)COC2)nn1 [Ex 2.2.6.]
80 | 670 | CO[C@@H]1[C@@H](n2cc(-c3ccc(F)c(F)c3F)nn2)[C@@H](O)[C@@H](CO)O[C@@H]1Cn1cc(C2(C)CCC2)nn1 [Ex 3.2.13.]
60 | 11000 | CO[C@@H]1[C@@H](n2cc(-c3ccc(C)c(F)c3F)nn2)[C@@H](O)[C@@H](CO)O[C@@H]1Cc1cn(C23CCC(N)(CC2)CC3)nn1 [Ex 1.2.39.]

IC50 (human Gal-3 (hGal-3)) [nM] | IC50 (human Gal-1 (hGal-1)) [nM] | SMILES
80 | 6700 | CO[C@@H]1[C@@H](n2cc(-c3ccc(Cl)c(F)c3F)nn2)[C@@H](O)[C@@H](CO)O[C@@H]1Cc1cn(C23CC(C(F)(F)F)(C2)C3)nn1 [Ex 2.1.24.]
30 | 1600 | CO[C@@H]1[C@@H](n2cc(-c3ccc(C#N)c(F)c3F)nn2)[C@@H](O)[C@@H](CO)O[C@@H]1Cc1cn([C@H]2CCOC[C@@H]2F)nn1 [Ex 5.1.66.CD]
40 | 970 | CO[C@@H]1[C@@H](n2cc(-c3ccc(F)c(F)c3F)nn2)[C@@H](O)[C@@H](CO)O[C@@H]1Cn1cc(C23CC(C2)C3)nn1 [Ex 3.2.12.]
130 | 2140 | CO[C@@H]1[C@@H](n2cc(-c3ccc(F)c(F)c3F)nn2)[C@@H](O)[C@@H](CO)O[C@@H]1Cn1cc(C2(O)CC2)nn1 [Ex 3.2.36.]
50 | 1930 | CO[C@@H]1[C@@H](n2cc(-c3ccc(Br)c(F)c3F)nn2)[C@@H](O)[C@@H](CO)O[C@@H]1Cn1cc(C2(C)CCC2)nn1 [Ex 4.2.13.]
60 | 3910 | CO[C@@H]1[C@@H](n2cc(-c3ccc(Cl)c(F)c3F)nn2)[C@@H](O)[C@@H](CO)O[C@@H]1Cn1cc(C2(O)CCOCC2)nn1 [Ex 2.2.35.]
160 | 11500 | CO[C@@H]1[C@@H](n2cc(-c3ccc(Cl)c(F)c3F)nn2)[C@@H](O)[C@@H](CO)O[C@@H]1Cc1cn(C2CC2C(C)C)nn1 (stereo partly shown) [Ex 2.1.17.]
50 | 3220 | CO[C@@H]1[C@@H](n2cc(-c3ccc(Br)c(F)c3F)nn2)[C@@H](O)[C@@H](CO)O[C@@H]1Cc1cn(C23CC(F)(C2)C3)nn1 [Ex 4.1.25., (2R,3R,4S,5R,6R)-4-(4-(4-bromo-2,3-difluorophenyl)-1H-1,2,3-triazol-1-yl)-6-((1-(3-fluorobicyclo[1.1.1]pentan-1-yl)-1H-1,2,3-triazol-4-yl)methyl)-2-(hydroxymethyl)-5-methoxytetrahydro-2H-pyran-3-ol]
50 | 2410 | CO[C@@H]1[C@@H](n2cc(-c3ccc(Br)c(F)c3F)nn2)[C@@H](O)[C@@H](CO)O[C@@H]1Cc1cn(C2(C)CC(F)(F)C2)nn1 [Ex 4.1.15.]
40 | 3300 | CO[C@@H]1[C@@H](n2cc(-c3ccc(Br)c(F)c3F)nn2)[C@@H](O)[C@@H](CO)O[C@@H]1Cc1cn(C23COC(C2)C3)nn1 [Ex 4.1.44.]
20 | 830 | CO[C@@H]1[C@@H](n2cc(-c3ccc(Cl)c(F)c3F)nn2)[C@@H](O)[C@@H](CO)O[C@@H]1Cc1cn(C2(C(F)F)CC2)nn1 [Ex 2.1.51., (2R,3R,4S,5R,6R)-4-(4-(4-chloro-2,3-difluorophenyl)-1H-1,2,3-triazol-1-yl)-6-((1-(1-(difluoromethyl)cyclopropyl)-1H-1,2,3-triazol-4-yl)methyl)-2-(hydroxymethyl)-5-methoxytetrahydro-2H-pyran-3-ol]
80 | 5040 | CO[C@@H]1[C@@H](n2cc(-c3ccc(C)c(F)c3F)nn2)[C@@H](O)[C@@H](CO)O[C@@H]1Cc1cn(C23CC(C(F)(F)F)(C2)C3)nn1 [Ex 1.1.24.]
40 | 2270 | CO[C@@H]1[C@@H](n2cc(-c3ccc(Cl)c(F)c3F)nn2)[C@@H](O)[C@@H](CO)O[C@@H]1Cc1cn([C@@H]2CC[C@H]2F)nn1 (single isomer, unassigned) [Example 2.1.88.D, (2R,3R,4S,5R,6R)-4-(4-(4-chloro-2,3-difluorophenyl)-1H-1,2,3-triazol-1-yl)-6-((1-((1R*,2R*)-2-fluorocyclobutyl)-1H-1,2,3-triazol-4-yl)methyl)-2-(hydroxymethyl)-5-methoxytetrahydro-2H-pyran-3-ol]
60 | 700 | CO[C@@H]1[C@@H](n2cc(-c3ccc(F)c(F)c3F)nn2)[C@@H](O)[C@@H](CO)O[C@@H]1Cc1cn(C23CC(C)(C2)C3)nn1 [Ex 3.1.14.]
20 | 670 | CO[C@@H]1[C@@H](n2cc(-c3ccc(Cl)c(F)c3F)nn2)[C@@H](O)[C@@H](CO)O[C@@H]1Cc1cn([C@]2(C)CCO[C@@H]2C)nn1 (single isomer, unassigned) [Example 2.1.68.B, (2R,3R,4S,5R,6R)-4-(4-(4-chloro-2,3-difluorophenyl)-1H-1,2,3-triazol-1-yl)-6-((1-((2R*,3R*)-2,3-dimethyltetrahydrofuran-3-yl)-1H-1,2,3-triazol-4-yl)methyl)-2-(hydroxymethyl)-5-methoxytetrahydro-2H-pyran-3-ol]
20 | 1090 | CO[C@@H]1[C@@H](n2cc(-c3ccc(Cl)c(F)c3F)nn2)[C@@H](O)[C@@H](CO)O[C@@H]1Cc1cn(C2(C)CC2)nn1 [Ex 2.1.23.]
40 | 2090 | CO[C@@H]1[C@@H](n2cc(-c3ccc(C)c(F)c3F)nn2)[C@@H](O)[C@@H](CO)O[C@@H]1Cc1cn(C2(CO)CCC2)nn1 [Ex 1.1.11.]
